Results: EP1046400B1, “Use of an Equine herpes virus type-4 thymidine kinase and a nucleoside analog selected from ganciclovir and acyclovir for the killing of human proliferative cells” (Université Pierre et Marie Curie (Paris VI), priority 1999, dated 2000)

Columns and labels:
[1] = tested on: murine tk(-) 3T3 HSV1-TK expressing clones; experiment: Cytotoxicity assay, TK expressing clones; assay type: cell-based; conditions: for Selectivity Index: IC50 ratio of parental to HSV1-TK clones; for IC50: Mus musculus, Table 2, HSV1-TK clones, mean of 3 experiments
Procedure: (§1) Cells were seeded at 2.5x10^3 per wells in 24-wells plates. 24 h later they were grown in drug-containing medium for 7 days. Drug concentrations ranging from 0.001 nM to 100 µM were tested in triplicate. The medium was changed with fresh DMEM every 2 days. On day 6, 1.5 µCi of [methyl-^3H]thymidine (Amersham, UK) was added per well. After washes with phosphate-buffered saline (PBS pH 7.3), incorporated radioactivity was determined with a Micro-Beta Plus counter (EG&G Instruments and Wallac, Turku, Finland).
(§2) Drug sensitivity of TK expressing clones were tested as described in Table 1.

[2] = tested on: murine tk(-) 3T3 EHV4-TK expressing clones; experiment: Cytotoxicity assay, TK expressing clones; assay type: cell-based; conditions: for Selectivity Index: IC50 ratio of parental to EHV4-TK clones; for IC50: Mus musculus
Procedure: as §1, §2

[3] = tested on: HSV1-TK expressing tk(-) 3T3 cells (bulk); experiment: Cytotoxicity assay, bulk transfected tk(-) 3T3 cells; assay type: cell-based, murine; conditions: for Selectivity Index: IC50 ratio of parental to HSV1-TK transfected cells (bulk); for IC50: Mus musculus, NIH3T3, 168 h
Procedure: (§3) Cells were transfected by the various plasmids using a calcium phosphate precipitation kit (GibcoBRL). After 48 h of phenotypic expression, cells were grown in selective medium with zeocin (Cayla, Toulouse, France): 25 µg/ml (3T3 cells), 50 µg/ml (143 B cells) or 100 µg/ml (PANC-O2 and HCT 116 cells).
as §1
(§4) Drug toxicity was assessed by measuring inhibition of cell proliferation. Cells were grown in drug-containing medium for 7 days. [methyl-^3H]-thymidine was added at day 6 and incorporated radioactivity was measured.

[4] = tested on: EBV-TK expressing tk(-) 3T3 cells (bulk); experiment: as above; assay type: cell-based, murine; conditions: for Selectivity Index: IC50 ratio of parental to EBV-TK transfected cells (bulk); for IC50: Mus musculus, NIH3T3, 168 h
Procedure: as §3, §1, §4

[5] = tested on: HSV1-TK expressing HCT116 cells; experiment: Cytotoxicity assay, colonic carcinoma cells; assay type: cell-based, human
Procedure: as §1

[6] = tested on: EHV4-TK expressing HCT116 cells; experiment: Cytotoxicity assay, colonic carcinoma cells; assay type: cell-based, human
Procedure: as §1

NIH-3T3 = experiment: Cytotoxicity assay (inhibition of [methyl-3H]thymidine incorporation), parental cells; assay type: cell-based, murine; conditions: Mus musculus, parental NIH-3T3
Procedure: as §1, §4

[7] = tested on: VZV-TK expressing tk(-) 3T3 cells (bulk); experiment: Cytotoxicity assay, bulk transfected tk(-) 3T3 cells; assay type: cell-based, murine; conditions: for Selectivity Index: IC50 ratio of parental to VZV-TK transfected cells (bulk); for IC50: Mus musculus, NIH3T3, 168 h
Procedure: (§5) Cells were transfected by the various plasmids using a calcium phosphate precipitation kit (GibcoBRL).
as §1, §4

[8] = tested on: EHV4-TK expressing tk(-) 3T3 cells (bulk); experiment: as above; assay type: cell-based, murine; conditions: for Selectivity Index: IC50 ratio of parental to EHV4-TK transfected cells (bulk); for IC50: Mus musculus, NIH3T3, 168 h
Procedure: as §5, §1, §4

[9] = 10 mg/kg twice a day, humans (refs 34, 35); cited from earlier work
[10] = tested on: HSV1-TK expressing PANC-O2 cell bulk; experiment: Cytotoxicity assay, pancreatic tumor cell bulk; assay type: cell-based, murine; conditions: Mus musculus, means of two independent experiments
Procedure: as §1

[11] = tested on: EHV4-TK expressing PANC-O2 cell bulk; experiment: Cytotoxicity assay, pancreatic tumor cell bulk; assay type: cell-based, murine
Procedure: as §1

[12] = tested on: tk(-) 3T3 cells expressing EHV4-TK/E-GFP fusion protein; experiment: GCV toxicity, viability assay (Figure 5-B); assay type: cell-based, murine; conditions: Mus musculus, NIH3T3
Procedure: (§6) (A) E-GFP expression in tk(-) 3T3 transfected and non-transfected cells. EHV4-TK gene fused with E-GFP gene (Figure 1-B) was transfected in tk(-) 3T3 cells, and E-GFP positive cells were detected by FACS analysis. Expression of E-GFP was determined a week after transfection (1) and after 2 months of culture in HAT medium (2). (B) GCV toxicity in transfected and non-transfected cells. Results were expressed as % of viable cells compared to cells grown without GCV.
(§7) Parental and viral-TK expressing cells were plated at 5x10^3 per wells in 6-wells dishes. After 24 h, drugs was added to the medium at various concentrations ranging from 0.01 to 100 µM. Medium containing drugs was changed every 2 days. After 7 days of culture, cell viability was assayed by counting viable cells by trypan blue exclusion after 7 days of culture with GCV.
(§8) To facilitate the transgene detection in transfected cells or tissues, the E-GFP gene was fused in frame at the 3' end of the EHV4-TK gene and cloned into an expression vector (Figure 1-B). This construction was then transfected into tk(-) 3T3 cells, followed by FACS analysis of E-GFP positive cells. A cell bulk containing 95% of E-GFP expressing cells was obtained. […] Expression of the EHV4-TK/E-GFP fusion protein efficiently sensitized these cells to GCV for which the IC50 was 0.6 µM, compared to 30 µM for tk(-) 3T3 cells (Figure 5-B).

tk(-) 3T3 cells = experiment: GCV toxicity, viability assay (Figure 5-B), non-transfected cells; assay type: cell-based, murine; conditions: Mus musculus, NIH3T3; non-transfected tk(-) 3T3; % viable cells
Procedure: as §6, §7, §8

[13] = tested on: human tk(-) 143B cells transfected with HSV1- or EHV4-TK; experiment: Cytotoxic activity on human cell bulks, EHV4-TK compared with HSV1-TK (Figure 3); assay type: cell-based; conditions: human tk(-) 143B cell bulks
Procedure: Toxicity is presented as mean of IC50 values ± SD. The means, determined on 3 independent experiments, are indicated on the top of each histogram.
as §1
Human tk(-) osteosarcoma 143B cell bulks expressing HSV1- or EHV4-TK were thus generated. We first analyzed the herpesvirus-TK protein expression levels for each cell bulks by […] using polyclonal antibodies against Sh protein (Figure 2-B). There was no detectable band corresponding to fused protein in tk(-) 143B cell extracts.

HCT116 cells = experiment: Cytotoxicity assay, colonic carcinoma cells, parental; assay type: cell-based; conditions: Homo sapiens, HCT-116, mean
Procedure: as §1

[14] = NIH3T3, 168 h, Table 1, 7 days drug, mean of 2 experiments
[15] = NIH3T3, Table 2, mean of 3 experiments

| Structure (SMILES) | Selectivity Index [1] | IC50 [1] [nM] | Selectivity Index [2] | IC50 [2] [nM] | Selectivity Index [3] | IC50 [3] [nM] | Selectivity Index [4] | IC50 [4] [nM] | IC50 (NIH-3T3; [14]) [nM] | IC50 (NIH-3T3; [15]) [nM] | Selectivity Index [7] | IC50 [7] [nM] | Selectivity Index [8] | IC50 [8] [nM] | toxicity / sensitivity in EHV4-TK compared with HSV1-TK expressing cells [13] | other results |
| --- | --- | --- | --- | --- | --- | --- | --- | --- | --- | --- | --- | --- | --- | --- | --- | --- |
| Nc1nc2c(ncn2COC(CO)CO)c(=O)[nH]1 [GCV, 9-(1,3-dihydroxy-2-propoxymethyl)guanine] | 230 | 160 | 612 | 60 | 350 | 200 | 12 | 6000 | 70000 | 36700 | 9 | 8000 | 700 | 100 | approximately twelve fold more sensitive | fold more sensitive than HCT116 cells ([5]; HSV1-TK expressing vs parental HCT116): 170 fold; IC50 ([5]; Homo sapiens, HCT-116, HSV1-TK HCT116, means ± SD for 3 independent experiments): 320 ± 80 nM; fold more sensitive than HCT116 cells ([6]; EHV4-TK expressing vs parental HCT116): 485 fold; IC50 fold lower for EHV4-TK than for HSV1-TK expressing cells ([6]; HCT116): 3 fold; IC50 ([6]; Homo sapiens, HCT-116, EHV4-TK HCT116, means ± SD for 3 independent experiments): 110 ± 20 nM; cerebral spinal fluid (CSF) concentrations, fold lower than plasmatic [9]: approximately 3 fold; IC50 [10]: 1700 ± 500 nM; IC50 ([11]; Mus musculus): 550 ± 70 nM; IC50 fold lower for EHV4-TK than for HSV1-TK expressing cell bulk ([11]; PANC-O2): 3 fold; IC50 [12]: 600 nM; IC50 (tk(-) 3T3 cells): 30000 nM; IC50 (HCT116 cells): 53400 ± 15000 nM |
| O=c1[nH]c(=O)n([C@H]2C[C@H](O)[C@@H](CO)O2)cc1/C=C/Br [BVDU, (E)-5-(2-bromovinyl)-2'-deoxyuridine] | 3331 | 13 | 1237 | 35 | 5500 | 15 | 1375 | 40 | 55000 | 43300 | 2750 | 16 | 2750 | 20 | greater in HSV1-TK than in EHV4-TK expressing cells |  |
| Nc1nc2c(ncn2COCCO)c(=O)[nH]1 [ACV, 9-(2-hydroxyethoxymethyl)guanine] |  | 15000 |  |  |  | 8700 |  | 43300 | 165000 | 53300 |  |  |  |  |  |  |
